pKi: −log10 of the molar value. Where a name gives a salt, the structure may show the parent alone.
Target: T1, human GlyT1c transporter (Homo sapiens, UniProt P48067)
T1 construct: expressed in transfected cells; host or cells: CHO cells (recombinant; membranes)
T1 sequence (P48067 1-706): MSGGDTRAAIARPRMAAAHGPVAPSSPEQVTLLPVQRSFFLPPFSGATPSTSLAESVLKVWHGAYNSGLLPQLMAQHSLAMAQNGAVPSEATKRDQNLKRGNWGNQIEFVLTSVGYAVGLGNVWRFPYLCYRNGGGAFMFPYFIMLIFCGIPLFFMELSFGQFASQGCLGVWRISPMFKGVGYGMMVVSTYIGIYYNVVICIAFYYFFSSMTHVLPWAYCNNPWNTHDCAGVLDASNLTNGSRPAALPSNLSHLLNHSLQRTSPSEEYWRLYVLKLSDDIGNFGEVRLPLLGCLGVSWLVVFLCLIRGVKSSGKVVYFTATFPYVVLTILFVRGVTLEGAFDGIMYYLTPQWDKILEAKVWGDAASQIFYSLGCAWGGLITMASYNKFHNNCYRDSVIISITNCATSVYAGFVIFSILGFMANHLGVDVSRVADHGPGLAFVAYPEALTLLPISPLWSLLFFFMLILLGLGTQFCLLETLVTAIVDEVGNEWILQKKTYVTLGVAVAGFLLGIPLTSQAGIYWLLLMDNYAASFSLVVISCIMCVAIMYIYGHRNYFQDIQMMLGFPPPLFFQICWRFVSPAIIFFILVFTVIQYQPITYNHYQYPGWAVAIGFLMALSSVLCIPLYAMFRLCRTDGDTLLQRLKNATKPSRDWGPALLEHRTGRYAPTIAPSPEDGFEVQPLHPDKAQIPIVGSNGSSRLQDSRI
Assay: Radioligand binding assay using recombinant CHO cell membranes expressing human GlyT1
Details: values given as bounds, read-out: radioligand binding K^iapp
Method: Radioligand binding to human GlyT1c transporter-expressing membranes was carried out as described in Mezler et al., Molecular Pharmacology 74:1705-1715, 2008.

Compound | pKi
NCCn1cc2c(n1)C(C1(c3ccc(Cl)cc3)CCC1)NCC2 (stereo not drawn) [Example 6, 2-(7-(1-(4-Chlorophenyl)cyclobutyl)-4,5,6,7-tetrahydro-2H-pyrazolo[3,4-c]pyridin-2-yl)ethanamine dihydrochloride] | ≤ 5.00
CCCS(=O)(=O)NCCn1ncc2c1C(C1(c3ccc(Cl)cc3)CCC1)NCC2 (stereo not drawn) [Example 7.1, N-(2-(7-(1-(4-Chlorophenyl)cyclobutyl)-4,5,6,7-tetrahydro-1H-pyrazolo[3,4-c]pyridin-1-yl)ethyl)propane-1-sulfonamide hydrochloride] | ≥ 6.00
Cn1cc(S(=O)(=O)NCCn2ncc3c2C(C2(c4ccc(Cl)cc4)CCC2)NCC3)cn1 (stereo not drawn) [Example 7.2, N-(2-(7-(1-(4-Chlorophenyl)cyclobutyl)-4,5,6,7-tetrahydro-1H-pyrazolo[3,4-c]pyridin-1-yl)ethyl)-1-methyl-1H-pyrazole-4-sulfonamide hydrochloride] | ≥ 5.00
O=S(=O)(CCCF)NCCn1ncc2c1C(C1(c3ccc(Cl)cc3)CCC1)NCC2 (stereo not drawn) [Example 7.3, N-(2-(7-(1-(4-Chlorophenyl)cyclobutyl)-4,5,6,7-tetrahydro-1H-pyrazolo[3,4-c]pyridin-1-yl)ethyl)-3-fluoropropane-1-sulfonamide hydrochloride] | ≥ 6.00
Cn1cnc(S(=O)(=O)NCCn2ncc3c2C(C2(c4ccc(Cl)cc4)CCC2)NCC3)c1 (stereo not drawn) [Example 7.4, N-(2-(7-(1-(4-Chlorophenyl)cyclobutyl)-4,5,6,7-tetrahydro-1H-pyrazolo[3,4-c]pyridin-1-yl)ethyl)-1-methyl-1H-imidazole-4-sulfonamide hydrochloride] | ≥ 6.00
CCCS(=O)(=O)NCc1ncc2c(n1)C(C1(c3ccc(Cl)cc3)CCC1)NCC2 (stereo not drawn) [Example 8.1, N-((8-(1-(4-Chlorophenyl)cyclobutyl)-5,6,7,8-tetrahydropyrido[3,4-d]pyrimidin-2-yl)methyl)propane-1-sulfonamide hydrochloride] | ≥ 6.00
O=S(=O)(CC1CC1)NCc1ncc2c(n1)C(C1(c3ccc(Cl)cc3)CCC1)NCC2 (stereo not drawn) [Example 8.2, N-((8-(1-(4-Chlorophenyl)cyclobutyl)-5,6,7,8-tetrahydropyrido[3,4-d]pyrimidin-2-yl)methyl)-1-cyclopropylmethanesulfonamide hydrochloride] | ≥ 6.00
Cn1cc(S(=O)(=O)NCc2ncc3c(n2)C(C2(c4ccc(Cl)cc4)CCC2)NCC3)cn1 (stereo not drawn) [Example 8.3, N-((8-(1-(4-Chlorophenyl)cyclobutyl)-5,6,7,8-tetrahydropyrido[3,4-d]pyrimidin-2-yl)methyl)-1-methyl-1H-pyrazole-4-sulfonamide hydrochloride] | ≥ 6.00
Cn1cnc(S(=O)(=O)NCc2ncc3c(n2)C(C2(c4ccc(Cl)cc4)CCC2)NCC3)c1 (stereo not drawn) [Example 8.4, N-((8-(1-(4-Chlorophenyl)cyclobutyl)-5,6,7,8-tetrahydropyrido[3,4-d]pyrimidin-2-yl)methyl)-1-methyl-1H-imidazole-4-sulfonamide hydrochloride] | ≥ 6.00
O=S(=O)(CCCF)NCc1ncc2c(n1)C(C1(c3ccc(Cl)cc3)CCC1)NCC2 (stereo not drawn) [Example 8.5, N-((8-(1-(4-Chlorophenyl)cyclobutyl)-5,6,7,8-tetrahydropyrido[3,4-d]pyrimidin-2-yl)methyl)-3-fluoropropane-1-sulfonamide hydrochloride] | ≥ 6.00
CCCS(=O)(=O)NCCn1cc2c(n1)C(C1(c3ccc(Cl)cc3)CCC1)NCC2 (stereo not drawn) [Example 9.1, N-(2-(7-(1-(4-Chlorophenyl)cyclobutyl)-4,5,6,7-tetrahydro-2H-pyrazolo[3,4-c]pyridin-2-yl)ethyl)propane-1-sulfonamide hydrochloride] | ≥ 6.00
CCS(=O)(=O)NCCn1cc2c(n1)C(C1(c3ccc(Cl)cc3)CCC1)NCC2 (stereo not drawn) [Example 9.2, N-(2-(7-(1-(4-Chlorophenyl)cyclobutyl)-4,5,6,7-tetrahydro-2H-pyrazolo[3,4-c]pyridin-2-yl)ethyl)ethanesulfonamide hydrochloride] | ≥ 5.00
CS(=O)(=O)NCCn1cc2c(n1)C(C1(c3ccc(Cl)cc3)CCC1)NCC2 (stereo not drawn) [Example 9.3, N-(2-(7-(1-(4-Chlorophenyl)cyclobutyl)-4,5,6,7-tetrahydro-2H-pyrazolo[3,4-c]pyridin-2-yl)ethyl)methanesulfonamide hydrochloride] | ≥ 6.00
O=S(=O)(NCCn1cc2c(n1)C(C1(c3ccc(Cl)cc3)CCC1)NCC2)c1ccccc1 (stereo not drawn) [Example 9.4, N-(2-(7-(1-(4-Chlorophenyl)cyclobutyl)-4,5,6,7-tetrahydro-2H-pyrazolo[3,4-c]pyridin-2-yl)ethyl)benzenesulfonamide hydrochloride] | ≥ 6.00
CCCCS(=O)(=O)NCCn1cc2c(n1)C(C1(c3ccc(Cl)cc3)CCC1)NCC2 (stereo not drawn) [Example 9.5, N-(2-(7-(1-(4-Chlorophenyl)cyclobutyl)-4,5,6,7-tetrahydro-2H-pyrazolo[3,4-c]pyridin-2-yl)-ethyl)butane-1-sulfonamide hydrochloride] | ≥ 6.00
Cn1cc(S(=O)(=O)NCCn2cc3c(n2)C(C2(c4ccc(Cl)cc4)CCC2)NCC3)cn1 (stereo not drawn) [Example 9.6, N-(2-(7-(1-(4-Chlorophenyl)cyclobutyl)-4,5,6,7-tetrahydro-2H-pyrazolo[3,4-c]pyridin-2-yl)-ethyl)-1-methyl-1H-pyrazole-4-sulfonamide hydrochloride] | ≥ 6.00
Cn1cnc(S(=O)(=O)NCCn2cc3c(n2)C(C2(c4ccc(Cl)cc4)CCC2)NCC3)c1 (stereo not drawn) [Example 9.7, N-(2-(7-(1-(4-Chlorophenyl)cyclobutyl)-4,5,6,7-tetrahydro-2H-pyrazolo[3,4-c]pyridin-2-yl)ethyl)-1-methyl-1H-imidazole-4-sulfonamide hydrochloride] | ≥ 6.00
O=S(=O)(CCCF)NCCn1cc2c(n1)C(C1(c3ccc(Cl)cc3)CCC1)NCC2 (stereo not drawn) [Example 9.8, N-(2-(7-(1-(4-Chlorophenyl)cyclobutyl)-4,5,6,7-tetrahydro-2H-pyrazolo[3,4-c]pyridin-2-yl)ethyl)-3-fluoropropane-1-sulfonamide hydrochloride] | ≥ 6.00
O=S(=O)(NCCn1cc2c(n1)C(C1(c3ccc(Cl)cc3)CCC1)NCC2)C1CCC1 (stereo not drawn) [Example 9.9, N-(2-(7-(1-(4-Chlorophenyl)cyclobutyl)-4,5,6,7-tetrahydro-2H-pyrazolo[3,4-c]pyridin-2-yl)-ethyl)cyclobutanesulfonamide hydrochloride] | ≥ 6.00
O=S(=O)(CC1CC1)NCCn1cc2c(n1)C(C1(c3ccc(Cl)cc3)CCC1)NCC2 (stereo not drawn) [Example 9.10, N-(2-(7-(1-(4-Chlorophenyl)cyclobutyl)-4,5,6,7-tetrahydro-2H-pyrazolo[3,4-c]pyridin-2-yl)-ethyl)-1-cyclopropylmethanesulfonamide hydrochloride] | ≥ 6.00
CC(C)CS(=O)(=O)NCCn1cc2c(n1)C(C1(c3ccc(Cl)cc3)CCC1)NCC2 (stereo not drawn) [Example 9.11, N-(2-(7-(1-(4-chlorophenyl)cyclobutyl)-4,5,6,7-tetrahydro-2H-pyrazolo[3,4-c]pyridin-2-yl)ethyl)-2-methylpropane-1-sulfonamide hydrochloride] | ≥ 6.00
O=S(=O)(NCCn1cc2c(n1)C(C1(c3ccc(Cl)cc3)CCC1)NCC2)c1cccnc1 (stereo not drawn) [Example 9.12, N-(2-(7-(1-(4-Chlorophenyl)cyclobutyl)-4,5,6,7-tetrahydro-2H-pyrazolo[3,4-c]pyridin-2-yl)ethyl)pyridine-3-sulfonamide dihydrochloride] | ≥ 6.00
CCCS(=O)(=O)N(C)CCn1cc2c(n1)C(C1(c3ccc(Cl)cc3)CCC1)NCC2 (stereo not drawn) [Example 10, N-(2-(7-(1-(4-chlorophenyl)cyclobutyl)-4,5,6,7-tetrahydro-2H-pyrazolo[3,4-c]pyridin-2-yl)ethyl)-N-methylpropane-1-sulfonamide hydrochloride] | ≥ 6.00
CCCS(=O)(=O)NCCn1c2c(c3ccccc31)CCNC2C1(c2ccc(Cl)cc2)CCC1 (stereo not drawn) [Example 11, N-(2-{1-[1-(4-Chlorophenyl)cyclobutyl]-1,2,3,4-tetrahydro-9H-b-carbolin-9-yl}ethyl)propane-1-sulfonamide] | ≥ 6.00

— patent US8642587B2, “Heterocyclic compounds, pharmaceutical compositions containing them, and their use in therapy” (AbbVie Deutschland GmbH & Co. KG, priority 2009, dated 2014)
